ChEMBL document CHEMBL4507294, “Data for DCP probe MSD-CYP11B2” (2021)

Experiments:
[1] = biological target: T1, Muscarinic acetylcholine receptor M1 (Homo sapiens) (UniProt P11229); settings: Compound concentration 10.0 uM
T1 sequence (whole entry): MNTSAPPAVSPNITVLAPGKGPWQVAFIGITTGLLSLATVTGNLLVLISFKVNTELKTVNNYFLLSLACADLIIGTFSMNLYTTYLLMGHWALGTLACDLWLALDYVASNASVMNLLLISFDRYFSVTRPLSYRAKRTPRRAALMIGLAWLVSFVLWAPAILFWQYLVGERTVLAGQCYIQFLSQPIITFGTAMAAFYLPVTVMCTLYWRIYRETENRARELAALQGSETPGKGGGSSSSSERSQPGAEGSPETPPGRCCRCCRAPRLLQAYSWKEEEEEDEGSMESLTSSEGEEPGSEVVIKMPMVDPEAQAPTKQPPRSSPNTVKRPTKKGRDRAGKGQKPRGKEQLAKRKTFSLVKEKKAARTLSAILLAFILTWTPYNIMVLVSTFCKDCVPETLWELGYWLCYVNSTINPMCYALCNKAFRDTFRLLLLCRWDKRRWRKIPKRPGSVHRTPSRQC

[2] = biological target: Sodium-dependent noradrenaline transporter (Homo sapiens) (UniProt P23975); settings: Compound concentration 10.0 uM
[3] = biological target: Mitogen-activated protein kinase kinase kinase 3 (Homo sapiens) (UniProt Q99759); settings: Compound concentration 1000.0 nM
[4] = biological target: Serine/threonine-protein kinase PAK 6 (Homo sapiens) (UniProt Q9NQU5); settings: Compound concentration 1000.0 nM
[5] = biological target: Serine/threonine-protein kinase WNK4 (Homo sapiens) (UniProt Q96J92); settings: Compound concentration 1000.0 nM
[6] = biological target: Mitogen-activated protein kinase kinase kinase 14 (Homo sapiens) (UniProt Q99558); settings: Compound concentration 1000.0 nM
[7] = biological target: Muscarinic acetylcholine receptor M3 (Homo sapiens) (UniProt P20309); settings: Compound concentration 10.0 uM
[8] = biological target: Tyrosine-protein kinase Lck (Homo sapiens) (UniProt P06239); settings: Compound concentration 1000.0 nM
[9] = tested on: Epidermal growth factor receptor (Homo sapiens), P00533 [UNDEFINED MUTATION]; settings: Compound concentration 1000.0 nM
[10] = tested on: Phosphatidylinositol 4,5-bisphosphate 3-kinase catalytic subunit alpha isoform (Homo sapiens), P42336 [M1043I]; settings: Compound concentration 1000.0 nM
Chain of Phosphatidylinositol 4,5-bisphosphate 3-kinase catalytic subunit alpha isoform (Homo sapiens), P42336 [M1043I] (P42336 whole entry M1043I, canonical isoform): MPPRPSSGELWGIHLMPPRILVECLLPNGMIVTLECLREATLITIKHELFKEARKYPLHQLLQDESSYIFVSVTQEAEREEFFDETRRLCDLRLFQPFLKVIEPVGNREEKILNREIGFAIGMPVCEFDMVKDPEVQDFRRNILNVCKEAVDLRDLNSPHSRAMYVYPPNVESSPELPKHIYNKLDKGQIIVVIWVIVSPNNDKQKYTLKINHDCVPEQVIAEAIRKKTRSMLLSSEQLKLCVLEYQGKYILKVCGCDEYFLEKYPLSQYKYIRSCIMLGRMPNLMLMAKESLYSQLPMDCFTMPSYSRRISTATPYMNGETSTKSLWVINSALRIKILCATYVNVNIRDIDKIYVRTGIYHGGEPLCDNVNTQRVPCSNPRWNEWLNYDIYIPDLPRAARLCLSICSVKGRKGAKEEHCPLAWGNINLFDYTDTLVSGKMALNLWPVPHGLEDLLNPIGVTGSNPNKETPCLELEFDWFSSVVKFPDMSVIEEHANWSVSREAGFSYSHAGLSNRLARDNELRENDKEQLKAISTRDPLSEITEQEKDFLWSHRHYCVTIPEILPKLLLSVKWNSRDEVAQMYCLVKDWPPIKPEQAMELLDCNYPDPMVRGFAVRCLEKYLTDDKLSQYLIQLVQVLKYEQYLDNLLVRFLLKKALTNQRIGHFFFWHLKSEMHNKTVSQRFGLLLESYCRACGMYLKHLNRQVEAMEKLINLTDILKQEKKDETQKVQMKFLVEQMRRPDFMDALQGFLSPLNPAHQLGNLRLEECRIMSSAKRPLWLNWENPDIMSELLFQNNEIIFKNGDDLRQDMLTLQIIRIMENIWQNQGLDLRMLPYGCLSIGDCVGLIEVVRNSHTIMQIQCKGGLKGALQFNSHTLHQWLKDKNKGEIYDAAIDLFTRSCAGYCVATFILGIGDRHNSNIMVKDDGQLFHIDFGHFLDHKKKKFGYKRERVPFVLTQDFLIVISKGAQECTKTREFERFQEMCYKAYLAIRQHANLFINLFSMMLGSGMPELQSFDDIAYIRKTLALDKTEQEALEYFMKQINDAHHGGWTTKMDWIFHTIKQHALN

[11] = biological target: Serine/threonine-protein kinase MRCK alpha (Homo sapiens) (UniProt Q5VT25); settings: Compound concentration 1000.0 nM
[12] = biological target: Mitogen-activated protein kinase kinase kinase kinase 4 (Homo sapiens) (UniProt O95819); settings: Compound concentration 1000.0 nM
[13] = tested on: Epidermal growth factor receptor (Homo sapiens), P00533 [L861Q]; settings: Compound concentration 1000.0 nM
[14] = biological target: Serine/threonine-protein kinase Nek6 (Homo sapiens) (UniProt Q9HC98); settings: Compound concentration 1000.0 nM
[15] = tested on: Mast/stem cell growth factor receptor Kit (Homo sapiens), P10721 [D816H]; settings: Compound concentration 1000.0 nM
[16] = biological target: Ribosomal protein S6 kinase alpha-5 (Homo sapiens) (UniProt O75582); settings: Compound concentration 1000.0 nM
Chain of Ribosomal protein S6 kinase alpha-5 (Homo sapiens) (O75582 whole entry, looked up): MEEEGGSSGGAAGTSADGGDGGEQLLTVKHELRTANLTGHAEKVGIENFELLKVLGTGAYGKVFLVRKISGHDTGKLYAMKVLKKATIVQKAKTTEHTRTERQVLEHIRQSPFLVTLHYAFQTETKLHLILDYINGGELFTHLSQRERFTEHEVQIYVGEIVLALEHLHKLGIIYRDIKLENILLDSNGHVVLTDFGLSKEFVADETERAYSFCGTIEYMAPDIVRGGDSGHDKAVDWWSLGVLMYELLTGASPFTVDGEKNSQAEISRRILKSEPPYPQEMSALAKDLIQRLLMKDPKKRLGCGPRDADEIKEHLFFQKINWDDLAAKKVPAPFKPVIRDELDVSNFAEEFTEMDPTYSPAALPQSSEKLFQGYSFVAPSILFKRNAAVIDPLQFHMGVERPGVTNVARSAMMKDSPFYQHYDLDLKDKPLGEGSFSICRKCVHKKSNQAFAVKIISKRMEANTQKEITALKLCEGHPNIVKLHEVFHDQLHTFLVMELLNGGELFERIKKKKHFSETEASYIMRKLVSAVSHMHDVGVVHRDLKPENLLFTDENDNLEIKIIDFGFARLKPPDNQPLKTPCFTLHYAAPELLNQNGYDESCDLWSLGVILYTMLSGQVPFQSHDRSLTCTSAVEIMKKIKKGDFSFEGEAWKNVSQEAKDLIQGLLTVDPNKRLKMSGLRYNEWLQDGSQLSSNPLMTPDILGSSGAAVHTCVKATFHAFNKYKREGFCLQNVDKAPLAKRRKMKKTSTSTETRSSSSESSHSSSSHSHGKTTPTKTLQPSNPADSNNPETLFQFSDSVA

[17] = biological target: Phosphatidylinositol 4-phosphate 5-kinase type-1 gamma (Homo sapiens) (UniProt O60331); settings: Compound concentration 1000.0 nM
[18] = biological target: Serine/threonine-protein kinase Sgk2 (Homo sapiens) (UniProt Q9HBY8); settings: Compound concentration 1000.0 nM
[19] = tested on: Phosphatidylinositol 4,5-bisphosphate 3-kinase catalytic subunit alpha isoform (Homo sapiens), P42336 [Q546K]; settings: Compound concentration 1000.0 nM
Chain of Phosphatidylinositol 4,5-bisphosphate 3-kinase catalytic subunit alpha isoform (Homo sapiens), P42336 [Q546K] (P42336 whole entry Q546K, canonical isoform): as the sequence (P42336 whole entry M1043I, canonical isoform) above, with Q546K, I1043M counted along it

[20] = biological target: Myosin-IIIb (Homo sapiens) (UniProt Q8WXR4); settings: Compound concentration 1000.0 nM
Chain of Myosin-IIIb (Homo sapiens) (Q8WXR4 whole entry): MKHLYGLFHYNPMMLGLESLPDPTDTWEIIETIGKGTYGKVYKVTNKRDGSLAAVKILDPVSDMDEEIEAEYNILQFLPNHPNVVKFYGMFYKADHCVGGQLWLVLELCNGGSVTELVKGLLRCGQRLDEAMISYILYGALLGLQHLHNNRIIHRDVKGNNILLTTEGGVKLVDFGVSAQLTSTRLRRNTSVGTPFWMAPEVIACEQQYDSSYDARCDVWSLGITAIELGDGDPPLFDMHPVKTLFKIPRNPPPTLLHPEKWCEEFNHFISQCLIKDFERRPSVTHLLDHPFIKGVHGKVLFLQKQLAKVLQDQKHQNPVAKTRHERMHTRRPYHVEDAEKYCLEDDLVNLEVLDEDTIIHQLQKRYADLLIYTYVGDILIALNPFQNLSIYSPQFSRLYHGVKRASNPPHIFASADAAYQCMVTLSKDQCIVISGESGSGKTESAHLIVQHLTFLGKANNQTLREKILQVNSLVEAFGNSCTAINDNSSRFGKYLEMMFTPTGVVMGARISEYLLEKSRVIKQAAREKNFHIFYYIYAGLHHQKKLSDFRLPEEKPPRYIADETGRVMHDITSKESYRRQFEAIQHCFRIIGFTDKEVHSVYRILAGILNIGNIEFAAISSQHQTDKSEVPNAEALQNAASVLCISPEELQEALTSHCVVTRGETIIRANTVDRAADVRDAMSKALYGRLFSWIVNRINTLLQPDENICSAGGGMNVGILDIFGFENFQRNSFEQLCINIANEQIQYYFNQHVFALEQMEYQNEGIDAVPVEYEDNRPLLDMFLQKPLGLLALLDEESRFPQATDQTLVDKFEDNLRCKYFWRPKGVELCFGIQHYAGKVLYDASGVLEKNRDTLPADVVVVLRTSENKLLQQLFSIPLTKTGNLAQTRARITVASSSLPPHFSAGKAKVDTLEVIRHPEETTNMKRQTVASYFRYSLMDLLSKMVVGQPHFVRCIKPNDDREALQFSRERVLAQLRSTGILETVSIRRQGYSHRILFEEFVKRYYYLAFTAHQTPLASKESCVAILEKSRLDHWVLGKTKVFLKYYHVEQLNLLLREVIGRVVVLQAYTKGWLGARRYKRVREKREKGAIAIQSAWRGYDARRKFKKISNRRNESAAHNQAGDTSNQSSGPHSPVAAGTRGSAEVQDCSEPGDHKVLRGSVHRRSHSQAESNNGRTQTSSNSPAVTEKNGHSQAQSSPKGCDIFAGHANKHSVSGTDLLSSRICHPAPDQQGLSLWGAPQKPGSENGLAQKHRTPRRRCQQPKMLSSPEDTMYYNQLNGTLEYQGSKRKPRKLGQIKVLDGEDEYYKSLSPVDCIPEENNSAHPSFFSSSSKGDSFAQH

[21] = tested on: Mast/stem cell growth factor receptor Kit (Homo sapiens), P10721 [D816V]; settings: Compound concentration 1000.0 nM
[22] = biological target: LIM domain kinase 1 (Homo sapiens) (UniProt P53667); settings: Compound concentration 1000.0 nM
[23] = biological target: Serine/threonine-protein kinase PLK3 (Homo sapiens) (UniProt Q9H4B4); settings: Compound concentration 1000.0 nM
[24] = biological target: Rhodopsin kinase GRK7 (Homo sapiens) (UniProt Q8WTQ7); settings: Compound concentration 1000.0 nM
[25] = biological target: Cyclin-G-associated kinase (Homo sapiens) (UniProt O14976); settings: Compound concentration 1000.0 nM
[26] = tested on: Mast/stem cell growth factor receptor Kit (Homo sapiens), P10721 [L576P]; settings: Compound concentration 1000.0 nM
[27] = biological target: Receptor-type tyrosine-protein kinase FLT3 (Homo sapiens) (UniProt P36888); settings: Compound concentration 1000.0 nM
[28] = biological target: Ribosomal protein S6 kinase alpha-2 (Homo sapiens) (UniProt Q15349); settings: Compound concentration 1000.0 nM
[29] = biological target: Insulin receptor-related protein (Homo sapiens) (UniProt P14616); settings: Compound concentration 1000.0 nM
Chain of Insulin receptor-related protein (Homo sapiens) (P14616 27-742 limits assumed): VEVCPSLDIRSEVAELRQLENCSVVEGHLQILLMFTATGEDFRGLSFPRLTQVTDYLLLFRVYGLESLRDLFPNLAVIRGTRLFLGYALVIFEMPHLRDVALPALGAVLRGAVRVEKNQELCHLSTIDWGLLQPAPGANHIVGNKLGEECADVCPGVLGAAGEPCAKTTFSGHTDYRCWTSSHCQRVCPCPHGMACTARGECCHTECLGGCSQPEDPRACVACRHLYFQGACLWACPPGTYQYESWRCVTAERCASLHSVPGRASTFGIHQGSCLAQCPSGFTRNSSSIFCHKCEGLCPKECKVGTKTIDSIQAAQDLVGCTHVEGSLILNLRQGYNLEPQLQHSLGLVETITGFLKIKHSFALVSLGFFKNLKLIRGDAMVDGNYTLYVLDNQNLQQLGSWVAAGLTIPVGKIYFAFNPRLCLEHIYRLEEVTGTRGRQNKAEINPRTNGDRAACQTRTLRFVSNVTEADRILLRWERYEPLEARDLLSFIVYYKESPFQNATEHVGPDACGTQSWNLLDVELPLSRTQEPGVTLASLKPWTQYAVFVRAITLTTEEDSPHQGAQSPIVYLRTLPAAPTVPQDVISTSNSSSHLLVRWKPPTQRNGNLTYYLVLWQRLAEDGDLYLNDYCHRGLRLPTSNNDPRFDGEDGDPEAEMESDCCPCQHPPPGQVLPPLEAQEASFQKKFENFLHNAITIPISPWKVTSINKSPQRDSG
Chain of Insulin receptor-related protein (Homo sapiens) (P14616 747-1297 limits assumed): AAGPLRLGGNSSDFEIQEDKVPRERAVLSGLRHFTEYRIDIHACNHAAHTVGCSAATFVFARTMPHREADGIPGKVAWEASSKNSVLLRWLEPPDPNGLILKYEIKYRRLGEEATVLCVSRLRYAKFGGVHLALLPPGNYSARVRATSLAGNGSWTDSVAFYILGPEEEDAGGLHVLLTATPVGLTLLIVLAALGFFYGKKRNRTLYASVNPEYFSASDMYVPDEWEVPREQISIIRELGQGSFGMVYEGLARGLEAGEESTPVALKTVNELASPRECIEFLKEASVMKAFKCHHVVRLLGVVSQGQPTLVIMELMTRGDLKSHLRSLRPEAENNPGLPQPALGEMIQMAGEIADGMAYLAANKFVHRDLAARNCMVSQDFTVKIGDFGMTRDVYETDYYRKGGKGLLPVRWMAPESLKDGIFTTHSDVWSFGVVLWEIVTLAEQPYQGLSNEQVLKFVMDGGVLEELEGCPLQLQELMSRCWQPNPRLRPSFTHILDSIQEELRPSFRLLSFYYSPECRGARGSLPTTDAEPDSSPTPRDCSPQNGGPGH

[30] = biological target: Serine/threonine-protein kinase PAK 3 (Homo sapiens) (UniProt O75914); settings: Compound concentration 1000.0 nM
[31] = biological target: Mitogen-activated protein kinase kinase kinase 20 (Homo sapiens) (UniProt Q9NYL2); settings: Compound concentration 1000.0 nM
[32] = biological target: Tyrosine-protein kinase JAK2 (Homo sapiens) (UniProt O60674); settings: Compound concentration 1000.0 nM
[33] = biological target: Phosphatidylinositol 3-kinase C2 domain-containing subunit gamma (Homo sapiens) (UniProt O75747); settings: Compound concentration 1000.0 nM
[34] = biological target: Dual specificity protein kinase CLK3 (Homo sapiens) (UniProt P49761); settings: Compound concentration 1000.0 nM
Chain of Dual specificity protein kinase CLK3 (Homo sapiens) (P49761 whole entry, looked up): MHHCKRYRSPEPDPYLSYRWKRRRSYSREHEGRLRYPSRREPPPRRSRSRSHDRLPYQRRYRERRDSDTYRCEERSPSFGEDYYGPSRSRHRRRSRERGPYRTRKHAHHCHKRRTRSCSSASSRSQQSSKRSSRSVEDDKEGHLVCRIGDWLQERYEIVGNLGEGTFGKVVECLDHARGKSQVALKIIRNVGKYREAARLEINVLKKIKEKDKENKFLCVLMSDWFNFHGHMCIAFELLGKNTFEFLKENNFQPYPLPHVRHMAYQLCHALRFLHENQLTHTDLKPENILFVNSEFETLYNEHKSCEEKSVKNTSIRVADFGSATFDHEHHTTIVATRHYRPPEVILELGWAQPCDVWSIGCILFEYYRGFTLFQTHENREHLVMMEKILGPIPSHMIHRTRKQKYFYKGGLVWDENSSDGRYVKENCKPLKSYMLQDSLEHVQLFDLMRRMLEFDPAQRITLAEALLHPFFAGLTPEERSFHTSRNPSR

[35] = biological target: Serine/threonine-protein kinase Chk1 (Homo sapiens) (UniProt O14757); settings: Compound concentration 1000.0 nM
[36] = biological target: Serine/threonine-protein kinase Sgk1 (Homo sapiens) (UniProt O00141); settings: Compound concentration 1000.0 nM
[37] = tested on: Receptor-type tyrosine-protein kinase FLT3 (Homo sapiens), P36888 [R834Q]; settings: Compound concentration 1000.0 nM
[38] = biological target: Alpha-2A adrenergic receptor (Homo sapiens) (UniProt P08913); settings: Compound concentration 10.0 uM

SMILES | inhibition [1] [%] | inhibition [2] [%] | residual activity [3] [%] | residual activity [4] [%] | residual activity [5] [%] | residual activity [6] [%] | inhibition [7] [%] | residual activity [8] [%] | residual activity [9] [%] | residual activity [10] [%] | residual activity [11] [%] | residual activity [12] [%] | residual activity [13] [%] | residual activity [14] [%] | residual activity [15] [%] | residual activity [16] [%] | residual activity [17] [%] | residual activity [18] [%] | residual activity [19] [%] | residual activity [20] [%] | also measured
CC(C)(O)c1cncc(-c2nc3ccc(F)cc3n2C2CC2)c1 [MSD-CYP11B2] | -4.49 | 2.3 | 99 | 100 | 100 | 100 | 1.04 | 100 | 100 | 100 | 100 | 72 | 100 | 100 | 100 | 100 | 100 | 100 | 78 | 71 | residual activity [21]: 100%; residual activity [22]: 100%; residual activity [23]: 100%; residual activity [24]: 86%; residual activity [25]: 100%; residual activity [26]: 100%; residual activity [27]: 93%; residual activity [28]: 100%; residual activity [29]: 100%; residual activity [30]: 100%; residual activity [31]: 100%; residual activity [32]: 100%; residual activity [33]: 100%; residual activity [34]: 100%; residual activity [35]: 100%; residual activity [36]: 100%; residual activity [37]: 100%; inhibition [38]: 74.6%
FC(F)(F)c1ccc2c(c1)nc(-c1cccnc1)n2C1CC1 [MSD-CYP11B2-Negative-control] | -7.11 | 17.2 | 100 | 100 | 100 | 100 | -1.22 | 100 | 87 | 100 | 100 | 100 | 100 | 100 | 100 | 100 | 85 | 100 | 99 | 67 | residual activity [21]: 100%; residual activity [22]: 100%; residual activity [23]: 100%; residual activity [24]: 81%; residual activity [25]: 100%; residual activity [26]: 100%; residual activity [27]: 93%; residual activity [28]: 100%; residual activity [29]: 100%; residual activity [30]: 100%; residual activity [31]: 100%; residual activity [32]: 100%; residual activity [33]: 100%; residual activity [34]: 100%; residual activity [35]: 100%; residual activity [36]: 100%; residual activity [37]: 100%; inhibition [38]: 6.92%
